Assay results published in the NIST ThermoML archive (doi:10.1021/je200302h).
± gives the expanded uncertainty stated by the source.

Details: Liquid, Drop weight

O=C=O [carbon dioxide] + O
interfacial tension [mN/m]
Details	8380 kPa	10440 kPa	13890 kPa	17340 kPa	20790 kPa
298.15 K	25.65 ± 0.42	25.15 ± 0.28	24.85 ± 0.29	24.9 ± 0.3	25 ± 1
313.15 K	22.23 ± 0.58	22.16 ± 0.6	23.33 ± 0.46	23.41 ± 0.46	25.07 ± 0.53
323.15 K	–	23.05 ± 0.57	22.74 ± 0.68	24.27 ± 0.78	23.5 ± 0.4
333.15 K	–	–	23.36 ± 0.51	23.58 ± 0.69	22.8 ± 0.6
